How the values were obtained:
[1] = target: T1, wild type EGFR tyrosine kinase (EGFR^wt) (Homo sapiens, UniProt P00533); assay: In vitro EGFR^wt-TK assay (ELISA); format: biochemical; details: mean ± SD of three replicates; for inhibition at 1 µM: read-out: EGFR^wt-TK inhibition rate
T1 construct: purchased PTM Bio; Co., Ltd

A549 cells [2] = assay: Cytotoxicity evaluation (MTT assay), A549; format: cell-based; details: Homo sapiens, mean ± SD of three replicates
PC-3 cells = assay: Cytotoxicity evaluation (MTT assay), PC-3; format: cell-based; details: Homo sapiens, mean ± SD of three replicates
HepG2 cells = assay: Cytotoxicity evaluation (MTT assay), HepG2; format: cell-based; details: Homo sapiens, mean ± SD of three replicates
A549 cells [3] = assay: Cell apoptosis analysis, Annexin V-FITC/PI flow cytometry; format: cell-based, Human; details: A549, 10 μM, 48 h
Source text: Apoptosis of A549 cells is an efficient route to clear out the extra cancer cells in the tissue homeostasis.

A549 cells [4] = assay: Cell cycle analysis, PI flow cytometry; details: 48 h
Description: The experimental data of apoptosis and cell cycle for A549 cells were evaluated in BD Accuri C6 flow cytometry (American BD Corporation Shanghai Co., Ltd.), provided by the School of Pharmaceutical Sciences, Guizhou University.
(B) Profiles obtained by FACS. The percentages for different phases of the cell cycle were illustrated in the histogram.

L02 cells = assay: Cytotoxicity evaluation (MTT assay), L02 normal cells; details: Homo sapiens, L02, read-out: IC50 L02
Description: Three tumour cells with high expression of EGFR^wt were used to test the antitumor activity of the compounds including, A549 (Human non-small-cell lung cancer cell line) cells, PC-3 (Human prostate cancer cell line) cells, and HepG2 (Human hepatocellular carcinomas cell line) cells. They were all purchased from the Shanghai Cell Bank of the Chinese Academy of Sciences. L02 (normal human liver cell line) cells were also used to evaluate the cytotoxicity. […] The IC50 values were calculated from the dose − response curve under Graph-Pad Prism.

T1 sequence (P00533 25-1210): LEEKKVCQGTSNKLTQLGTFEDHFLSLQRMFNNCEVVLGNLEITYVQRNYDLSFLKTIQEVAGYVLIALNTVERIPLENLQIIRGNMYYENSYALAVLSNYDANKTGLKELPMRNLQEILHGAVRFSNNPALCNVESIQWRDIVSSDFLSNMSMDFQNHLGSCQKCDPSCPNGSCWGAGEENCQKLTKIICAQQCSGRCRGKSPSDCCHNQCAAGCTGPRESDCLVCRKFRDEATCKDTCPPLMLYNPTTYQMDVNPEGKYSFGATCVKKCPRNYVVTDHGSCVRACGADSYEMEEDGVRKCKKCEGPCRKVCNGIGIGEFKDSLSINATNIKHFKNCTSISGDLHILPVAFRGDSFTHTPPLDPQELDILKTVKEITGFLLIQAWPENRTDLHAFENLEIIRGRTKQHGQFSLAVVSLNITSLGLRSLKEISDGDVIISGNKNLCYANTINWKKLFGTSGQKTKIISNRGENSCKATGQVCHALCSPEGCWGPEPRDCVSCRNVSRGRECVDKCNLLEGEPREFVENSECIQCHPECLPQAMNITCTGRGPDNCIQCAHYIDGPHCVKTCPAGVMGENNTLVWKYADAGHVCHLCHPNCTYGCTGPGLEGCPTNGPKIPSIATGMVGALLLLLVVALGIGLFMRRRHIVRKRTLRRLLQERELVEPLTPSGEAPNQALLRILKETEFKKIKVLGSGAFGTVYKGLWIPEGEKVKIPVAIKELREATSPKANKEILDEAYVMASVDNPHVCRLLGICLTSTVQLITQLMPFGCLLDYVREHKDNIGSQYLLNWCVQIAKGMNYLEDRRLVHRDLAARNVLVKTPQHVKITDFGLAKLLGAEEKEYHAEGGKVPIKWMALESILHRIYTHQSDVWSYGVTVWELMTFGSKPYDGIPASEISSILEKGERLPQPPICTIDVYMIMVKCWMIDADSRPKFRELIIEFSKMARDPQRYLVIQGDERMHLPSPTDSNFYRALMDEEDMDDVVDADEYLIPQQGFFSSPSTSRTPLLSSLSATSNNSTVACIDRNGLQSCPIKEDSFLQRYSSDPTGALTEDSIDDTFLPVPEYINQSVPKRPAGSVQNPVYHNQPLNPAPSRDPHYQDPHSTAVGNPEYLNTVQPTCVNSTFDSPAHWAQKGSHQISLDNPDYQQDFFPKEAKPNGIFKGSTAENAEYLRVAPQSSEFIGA

EGFR^wt-TK inhibition rate ([1]; 1 μM) [%] | inhibition at 1 µM ([1]; 1 μM) [%] | IC50 [1] [µM] | melting point [°C] | SMILES | IC50 (A549 cells [2]) [µM] | IC50 (PC-3 cells) [µM] | IC50 (HepG2 cells) [µM] | early apoptotic cells (Q2-4) (A549 cells [3]) [%] | late apoptotic cells (Q2-2) (A549 cells [3]) [%] | Percentage of cells in G2/M phase (A549 cells [4]; A549, 1 μM) [%] | Percentage of cells in G2/M phase (A549 cells [4]; A549, 10 μM) [%] | IC50 (L02 cells) [µM]
61.69 ± 2.08 | > 50 | 0.32 ± 0.047 | 217.1 to 219 | CNC(=O)c1ccsc1Nc1nc(Nc2ccc(NC(=O)c3cccc(F)c3)cc2)ncc1C(F)(F)F [4c, 2-{2-[4–(3-Fluoro-benzoylamino)-phenylamino]-5-trifluoromethyl-pyrimidin-4-ylamino}-thiophene-3-carboxylic acid methylamide] | 0.56 ± 0.12 | 2.46 ± 0.42 | 2.21 ± 0.5 | 10.70 | 57.84 | 51.09 | 59.32 | > 40
– | 53.1 ± 1.75 | 0.64 ± 0.1 | > 250 | CNC(=O)c1ccsc1Nc1nc(Nc2ccc(Nc3c(NCCNC(=O)C=Cc4ccccc4)c(=O)c3=O)cc2)ncc1C(F)(F)F [8e, 2-[2-(4-{3,4-Dioxo-2-[2-(3-phenyl-acryloylamino)-ethylamino]-cyclobut-1-enylamino}-phenylamino)-5-trifluoromethyl-pyrimidin-4-ylamino]-thiophene-3-carboxylic acid methylamide] | 3.15 ± 0.44 | 4.12 ± 0.65 | 4.31 ± 0.39 | – | – | – | – | > 40
– | 58.9 ± 1.92 | 0.57 ± 0.29 | > 250 | CNC(=O)c1ccsc1Nc1nc(Nc2ccc(Nc3c(NCCNC(=O)C=Cc4cccc(F)c4)c(=O)c3=O)cc2)ncc1C(F)(F)F [8f, 2-{2-[4–(2-{2-[3-(3-Fluoro-phenyl)-acryloylamino]-ethylamino}-3,4-dioxo-cyclobut-1-enylamino)-phenylamino]-5-trifluoromethyl-pyrimidin-4-ylamino}-thiophene-3-carboxylic acid methylamide] | 2.17 ± 0.54 | 3.48 ± 0.22 | 3.09 ± 0.66 | – | – | – | – | > 40
– | 52.1 ± 1.93 | 0.59 ± 0.15 | > 250 | CNC(=O)c1ccsc1Nc1nc(Nc2ccc(Nc3c(NCCNC(=O)C=Cc4ccc(F)cc4)c(=O)c3=O)cc2)ncc1C(F)(F)F [8g, 2-{2-[4–(2-{2-[3–(4-Fluoro-phenyl)-acryloylamino]-ethylamino}-3,4-dioxo-cyclobut-1-enylamino)-phenylamino]-5-trifluoromethyl-pyrimidin-4-ylamino}-thiophene-3-carboxylic acid methylamide] | 3.14 ± 0.92 | 6.08 ± 0.94 | 5.33 ± 0.58 | – | – | – | – | > 40
– | – | – | – | COc1cc2ncnc(Nc3ccc(F)c(Cl)c3)c2cc1OCCCN1CCOCC1 [Gefitinib, reference compound] | – | – | – | 7.77 | 10.62 | – | 21.71 | –

Reference: article PMC8920385, “Design, synthesis and biological evaluation of a series of dianilinopyrimidines as EGFR inhibitors” (Journal of Enzyme Inhibition and Medicinal Chemistry, 2022)
